These results are taken from publication PMC13081163, “Discovery of a novel Nrf2 activator that modulates mitochondrial function in neurons by regulating DHRS3-Nrf2 interaction after ischemic stroke” (Theranostics, 2026).

In general, Kd refers to the concentration at which binding is half-saturated.

In data set [1] the target is Keap1 BTB domain fragment (48-149) (Homo sapiens, UniProt Q14145). Description: SPR binding to truncated Keap1 (48-149). The method, then:
(§1) The binding affinity of Cpd.51 or Oma to Keap1 proteins were measured using a Biacore T200. The overall experimental procedures were based on previous reports, [28]. Human recombinant Keap1 proteins or truncated form of Keap1 (residues 48-180 and residues 48-149) were captured on a CM5 chip by a standard amine coupling procedure. Binding sensorgrams were recorded by injecting various concentrations of Cpd.51 over the immobilized proteins surface. The dissociation constant was obtained by globally fitting the data (to the 1:1 Langmuir binding model using the Biacore Insight evaluation software (Cytiva, Marlborough, MA, USA). Affinity tests for Cpd.51 and DHRS3 were also performed using the aforementioned method.
Background: SPR reads the build-up and loss of mass on a sensor chip optically.

A short description of data set [2]: Acute (7-day i.v.) toxicity in rats. Particulars: 10 mg/kg i.v. daily for 7 days. It counts as in vivo, rat. The method, then:
Cpd.51 was dissolved in solvent (10% DMSO, 10% Solutol HS-15 and 80% saline). It was injected (i.v.) at dose of 3 mg/kg or 5 mg/kg in a 0.5 mL volume. The Sham group and Vehicle group were treated simultaneously with an equal volume of solvent. In the experiment to explore the treatment time window, we merely administered the drug to the rats at different time points, while all other procedures remained unchanged. In the short-term toxicity study, 10 mg/kg Cpd.51 and Oma were administered via tail vein injection at 0.5 mL daily for 7 consecutive days.
Glutamic-pyruvic transaminase (GPT) kits (ml092635, mlbio, China), glutamic oxaloacetic transaminase (GOT) kits (ml092714, mlbio, China), creatinine (CRE) kits (M12C4L, mlbio, China) and blood urea nitrogen (BUN) kits (ml076479, China) were used to detect the serum of rats in order to evaluate liver and kidney functions. Male and female rats were randomly divided into Sham group, Cpd.51 group and Oma group. Doses were administered once daily at 10 mg/kg and body weights were recorded accordingly. Sham groups were given the same volume of solvent. After 7 days, the […] were sacrificed, serum was collected and tested according to the instructions.

For data set [3], the target named is Human recombinant Keap1 proteins (Homo sapiens, UniProt Q14145). Description: SPR binding to full-length Keap1. Further details: purchased Sinobiological ME18DE0203. The settings on record: read-out: KD, full-length Keap1 protein. The method, then: as §1
A short description of data set [4]: Metabolite identification in human liver microsomes. Format: in vitro ADME. The method, then:
In vitro identification of metabolites was performed by incubating Cpd.51 (parent compound, final concentration 10 µM) with human liver microsomes (final protein concentration, 1 mg/mL) at 37 °C in a 100 mM potassium phosphate buffer containing 5 mM MgCl2. Samples were quenched with methanol and analyzed using a Waters G2-XS Q-Tof UPLC-MS system employing positive-ion and negative-ion electrospray ionization. The LC-MS extract ion chromatograms to identify the major putative metabolites. MS/MS spectra of Cpd.51 and its metabolites were acquired during both positive-ion and negative-ion electrospray. The potential chemical structures of the metabolites were inferred from their MS/MS spectra and retention times. Metabolic pathways of Cpd.51 in human liver microsomes were subsequently proposed. […]
The objective of this study is to identify major metabolites of Cpd.51 generated in human […]
In vitro metabolites identification was conducted after incubating Cpd.51 (parent compound, final concentration 10 µM) with human liver microsomes (final protein concentration, 1 mg/mL) at 37 °C in 100 mM potassium phosphate buffer containing 5 mM MgCl2 in the presence of NADPH or without NADPH. The samples taken at 0 minute (min) and 5 min were quenched by methanol and analyzed using Waters G2-XS Q-Tof UPLC-MS system with positive-ion and negative-ion electrospray ionization. […]
On the technique in general: Liver microsomes are vesicles of endoplasmic reticulum, rich in cytochrome P450 enzymes.

Structures are written as SMILES.

Chain of Keap1 BTB domain fragment (48-149) (Q14145 48-149): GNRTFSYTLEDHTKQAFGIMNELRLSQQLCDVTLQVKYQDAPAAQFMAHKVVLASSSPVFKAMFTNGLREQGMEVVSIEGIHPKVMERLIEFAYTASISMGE
Chain of Human recombinant Keap1 proteins (Q14145 whole entry): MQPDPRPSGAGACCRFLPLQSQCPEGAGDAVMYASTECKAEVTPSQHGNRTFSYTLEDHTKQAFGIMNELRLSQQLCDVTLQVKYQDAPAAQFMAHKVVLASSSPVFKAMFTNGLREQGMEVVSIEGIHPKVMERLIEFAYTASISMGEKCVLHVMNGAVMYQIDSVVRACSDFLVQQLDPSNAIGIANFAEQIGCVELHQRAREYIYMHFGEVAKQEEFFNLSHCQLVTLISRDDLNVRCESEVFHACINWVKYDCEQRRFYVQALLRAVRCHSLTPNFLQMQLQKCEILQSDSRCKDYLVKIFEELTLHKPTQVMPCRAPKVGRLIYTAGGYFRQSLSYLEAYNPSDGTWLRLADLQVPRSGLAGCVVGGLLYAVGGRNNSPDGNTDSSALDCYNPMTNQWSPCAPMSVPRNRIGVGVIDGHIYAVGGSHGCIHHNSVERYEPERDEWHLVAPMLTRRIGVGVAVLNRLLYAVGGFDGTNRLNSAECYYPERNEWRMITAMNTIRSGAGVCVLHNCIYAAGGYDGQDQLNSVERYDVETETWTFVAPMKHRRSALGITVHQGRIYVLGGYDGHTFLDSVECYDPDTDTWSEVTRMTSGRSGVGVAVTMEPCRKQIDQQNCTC

The compound `CC1(C)CCC2(C(=O)NO)CCC3(C)C(C(=O)C=C4C5(C)C=C(C#N)C(=O)C(C)(C)C5CCC43C)C2C1` (stereo not shown) [Cpd.51] had a Kd in data set [1] of 67.2 µM. Further, in data set [2], the “liver hypertrophy, serum GPT and GOT” value is on record as “not observed”; the “serum CRE and BUN” value was “did not induce these changes”; the weight gain entry is “suppressed weight gain”. Further, the Kd in data set [3] is 53.9 µM. Further, in data set [4] (human liver microsomes), the “number of major metabolites” value was 10. Also, the “Relative UV abundance (5 min), relative to parent in T0 sample” value in data set [4] (human liver microsomes with NADPH, 10 µM Cpd.51, 5 min, UV 250-260 nm) is on record as 54.06%.
